Measurements from PubChem BioAssay (NCI).
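Compound exposure: 48 hours, 5 concentrations, 96-well plates. At the GI50, growth is halved. Definition used: TGI = concentration required for complete inhibition of growth.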

Legend:
Assay in all cases: NCI-60 cell line screen, 48 h
EKVX NSCLC = system: EKVX NSCLC
SN12C renal = system: SN12C renal
OVCAR-5 ovarian = system: OVCAR-5 ovarian
786-0 renal = system: 786-0 renal
A549 NSCLC = system: A549 NSCLC
COLO 205 colon = system: COLO 205 colon
MALME-3M melanoma = system: MALME-3M melanoma
CCRF-CEM leukemia = system: CCRF-CEM leukemia
HOP-62 NSCLC = system: HOP-62 NSCLC
MCF7 breast = system: MCF7 breast

NC(=O)c1c2c(cc3c(=O)c4ccccc4[nH]c13)CCCC2
TGI (EKVX NSCLC): > 100 µM
TGI (SN12C renal): > 100 µM
TGI (OVCAR-5 ovarian): > 100 µM
TGI (786-0 renal): > 100 µM
TGI (A549 NSCLC): > 100 µM
TGI (COLO 205 colon): > 100 µM
TGI (MALME-3M melanoma): > 100 µM
TGI (CCRF-CEM leukemia): 98.7 µM
TGI (HOP-62 NSCLC): > 100 µM

CC(C)=CC1CC(C)C2(CCC3(C)CC4C(C(=O)CC4(C)O)/C(C=O)=C\CC32)O1 (stereo unspecified)
TGI (EKVX NSCLC): 0.346 µM
TGI (SN12C renal): 0.184 µM
TGI (OVCAR-5 ovarian): 0.33 µM
TGI (786-0 renal): 0.0438 µM
TGI (MCF7 breast): 0.684 µM
TGI (A549 NSCLC): 0.215 µM
TGI (COLO 205 colon): 0.153 µM
TGI (CCRF-CEM leukemia): 0.0422 µM
TGI (HOP-62 NSCLC): 0.274 µM

CC1CC2(CCC1OCc1ccccc1)OCCO2 (stereo unspecified)
TGI (EKVX NSCLC): > 100 µM
TGI (SN12C renal): > 100 µM
TGI (786-0 renal): > 100 µM
TGI (A549 NSCLC): > 100 µM
TGI (COLO 205 colon): > 100 µM
TGI (MALME-3M melanoma): > 100 µM
TGI (CCRF-CEM leukemia): > 100 µM
TGI (HOP-62 NSCLC): > 100 µM

COc1ccc(C(O)/C(=C/n2ccnc2)c2ccccc2)cc1OC (stereo unspecified)
TGI (EKVX NSCLC): > 100 µM
TGI (SN12C renal): > 100 µM
TGI (OVCAR-5 ovarian): > 100 µM
TGI (786-0 renal): > 100 µM
TGI (A549 NSCLC): > 100 µM
TGI (COLO 205 colon): > 100 µM
TGI (MALME-3M melanoma): > 100 µM
TGI (CCRF-CEM leukemia): > 100 µM
TGI (HOP-62 NSCLC): > 100 µM

NC1=NC(c2ccc(F)cc2)C2=C(N1)c1ccc3ccccc3c1OCC2 (stereo unspecified)
GI50 (EKVX NSCLC): 5.95 µM
TGI (EKVX NSCLC): 75.2 µM
GI50 (SN12C renal): 22.2 µM
TGI (SN12C renal): > 100 µM
GI50 (OVCAR-5 ovarian): > 100 µM
TGI (OVCAR-5 ovarian): > 100 µM
GI50 (786-0 renal): 79.7 µM
TGI (786-0 renal): > 100 µM
GI50 (MCF7 breast): 4.69 µM
TGI (MCF7 breast): > 100 µM
GI50 (A549 NSCLC): 18.7 µM
TGI (A549 NSCLC): > 100 µM
GI50 (MALME-3M melanoma): 18.5 µM
TGI (MALME-3M melanoma): > 100 µM
GI50 (HOP-62 NSCLC): 23.5 µM
TGI (HOP-62 NSCLC): > 100 µM

COc1ccc(-n2c3c(c4c(CN(C)C)c(O)c(C)cc42)CCc2ccccc2C3=O)cc1
GI50 (EKVX NSCLC): 44.5 µM
TGI (EKVX NSCLC): > 100 µM
GI50 (SN12C renal): 29.6 µM
TGI (SN12C renal): > 100 µM
GI50 (OVCAR-5 ovarian): 35.2 µM
TGI (OVCAR-5 ovarian): > 100 µM
GI50 (786-0 renal): 29.7 µM
TGI (786-0 renal): > 100 µM
GI50 (MCF7 breast): > 100 µM
TGI (MCF7 breast): > 100 µM
GI50 (A549 NSCLC): 55.6 µM
TGI (A549 NSCLC): > 100 µM
GI50 (COLO 205 colon): > 100 µM
TGI (COLO 205 colon): > 100 µM
GI50 (MALME-3M melanoma): 25.4 µM
TGI (MALME-3M melanoma): > 100 µM
GI50 (HOP-62 NSCLC): 40.8 µM
TGI (HOP-62 NSCLC): > 100 µM

NC(=O)NCCSC1CCCCC1O (stereo unspecified)
TGI (EKVX NSCLC): > 100 µM
TGI (SN12C renal): > 100 µM
TGI (OVCAR-5 ovarian): > 100 µM
TGI (786-0 renal): > 100 µM
TGI (MCF7 breast): > 100 µM
TGI (A549 NSCLC): > 100 µM
TGI (COLO 205 colon): > 100 µM
TGI (MALME-3M melanoma): > 100 µM
TGI (HOP-62 NSCLC): > 100 µM

COC(=O)[C@@H]1CCCN1C(=O)[C@H]1CCCN1C(=O)[C@@H](Cc1c[nH]c2ccccc12)NC(=S)Nc1cc(C(F)(F)F)cc(C(F)(F)F)c1
GI50 (SN12C renal): 3.14 µM
TGI (SN12C renal): 10.9 µM
GI50 (OVCAR-5 ovarian): 4.3 µM
TGI (OVCAR-5 ovarian): 18.4 µM
GI50 (786-0 renal): 7.5 µM
TGI (786-0 renal): 20.2 µM
GI50 (MCF7 breast): 2.11 µM
TGI (MCF7 breast): 5.37 µM
GI50 (A549 NSCLC): 2.19 µM
TGI (A549 NSCLC): 5.54 µM
GI50 (COLO 205 colon): 2.06 µM
TGI (COLO 205 colon): 3.97 µM
GI50 (MALME-3M melanoma): 2.65 µM
TGI (MALME-3M melanoma): 7.24 µM
GI50 (CCRF-CEM leukemia): 3.25 µM
TGI (CCRF-CEM leukemia): 11.3 µM
GI50 (HOP-62 NSCLC): 3.25 µM
TGI (HOP-62 NSCLC): 12.1 µM

Cc1ccc(F)cc1NC(=O)c1cc(Cl)ccc1Nc1ccccc1
GI50 (SN12C renal): > 100 µM
TGI (SN12C renal): > 100 µM
GI50 (OVCAR-5 ovarian): > 100 µM
TGI (OVCAR-5 ovarian): > 100 µM
GI50 (786-0 renal): 52.1 µM
TGI (786-0 renal): > 100 µM
GI50 (MCF7 breast): > 100 µM
TGI (MCF7 breast): > 100 µM
GI50 (A549 NSCLC): > 100 µM
TGI (A549 NSCLC): > 100 µM
GI50 (COLO 205 colon): > 100 µM
TGI (COLO 205 colon): > 100 µM
GI50 (MALME-3M melanoma): > 100 µM
TGI (MALME-3M melanoma): > 100 µM
GI50 (CCRF-CEM leukemia): 20.2 µM
TGI (CCRF-CEM leukemia): > 100 µM
GI50 (HOP-62 NSCLC): 79 µM
TGI (HOP-62 NSCLC): > 100 µM

C=CCN(CC=C)CC(C(C)=O)C(c1ccccc1)c1c(O)c2ccccc2oc1=O (stereo unspecified)
TGI (EKVX NSCLC): > 100 µM
TGI (SN12C renal): > 100 µM
TGI (OVCAR-5 ovarian): > 100 µM
TGI (786-0 renal): > 100 µM
TGI (A549 NSCLC): > 100 µM
TGI (COLO 205 colon): > 100 µM
TGI (MALME-3M melanoma): > 100 µM
TGI (CCRF-CEM leukemia): > 100 µM
TGI (HOP-62 NSCLC): > 100 µM

NC(N)=N/N=C/c1c(-c2ccc(Cl)c([N+](=O)[O-])c2)nc2ccccn12
GI50 (EKVX NSCLC): 2.5 µM
TGI (EKVX NSCLC): 13 µM
GI50 (SN12C renal): 1.87 µM
TGI (SN12C renal): 3.66 µM
GI50 (OVCAR-5 ovarian): 1.73 µM
TGI (OVCAR-5 ovarian): 3.21 µM
GI50 (786-0 renal): 0.512 µM
TGI (786-0 renal): 1.9 µM
GI50 (A549 NSCLC): 1.63 µM
TGI (A549 NSCLC): 2.99 µM
GI50 (HOP-62 NSCLC): 1.56 µM
TGI (HOP-62 NSCLC): 2.9 µM

CC[C@@]1(O)C(=O)OCc2c1cc1n(c2=O)Cc2cc3c(NC(=O)CN)cccc3nc2-1
TGI (EKVX NSCLC): > 100 µM
TGI (SN12C renal): 17.1 µM
TGI (OVCAR-5 ovarian): 63.8 µM
TGI (786-0 renal): 3 µM
TGI (MCF7 breast): > 100 µM
TGI (A549 NSCLC): > 48.5 µM
TGI (COLO 205 colon): > 51.3 µM
TGI (CCRF-CEM leukemia): 2.33 µM
TGI (HOP-62 NSCLC): 9.22 µM

COc1ccc(-c2csc3c2-n2cccc2C3=O)cc1O
GI50 (SN12C renal): 0.0365 µM
TGI (SN12C renal): > 100 µM
GI50 (OVCAR-5 ovarian): 1.5 µM
TGI (OVCAR-5 ovarian): > 100 µM
GI50 (786-0 renal): 0.0977 µM
TGI (786-0 renal): 25.2 µM
GI50 (MCF7 breast): 0.0326 µM
TGI (MCF7 breast): > 100 µM
GI50 (A549 NSCLC): 0.112 µM
TGI (A549 NSCLC): > 91.5 µM
GI50 (COLO 205 colon): 9.77 µM
TGI (COLO 205 colon): 26.3 µM
GI50 (MALME-3M melanoma): 35.3 µM
TGI (MALME-3M melanoma): > 100 µM
GI50 (CCRF-CEM leukemia): 0.059 µM
TGI (CCRF-CEM leukemia): 0.4 µM
GI50 (HOP-62 NSCLC): 0.0578 µM
TGI (HOP-62 NSCLC): > 100 µM

CC(=O)Nc1ccc(-c2nnc(SCC(=O)Nc3ccccc3C)o2)cc1
TGI (SN12C renal): > 100 µM
TGI (OVCAR-5 ovarian): > 100 µM
TGI (786-0 renal): > 100 µM
TGI (A549 NSCLC): > 100 µM
TGI (COLO 205 colon): > 100 µM
TGI (MALME-3M melanoma): > 100 µM
TGI (CCRF-CEM leukemia): > 100 µM
TGI (HOP-62 NSCLC): > 100 µM

COC(=O)n1c(CBr)c(Br)c2ccccc21
TGI (OVCAR-5 ovarian): 79.2 µM
TGI (786-0 renal): > 100 µM
TGI (A549 NSCLC): > 100 µM
TGI (COLO 205 colon): > 100 µM
TGI (MALME-3M melanoma): > 100 µM
TGI (CCRF-CEM leukemia): 70.2 µM
TGI (HOP-62 NSCLC): 54 µM

O=CN1CCN(C=S)CC1
TGI (EKVX NSCLC): > 100 µM
TGI (SN12C renal): > 100 µM
TGI (OVCAR-5 ovarian): > 100 µM
TGI (786-0 renal): > 100 µM
TGI (A549 NSCLC): > 100 µM
TGI (COLO 205 colon): > 100 µM
TGI (MALME-3M melanoma): > 100 µM
TGI (CCRF-CEM leukemia): > 100 µM
TGI (HOP-62 NSCLC): > 100 µM

COc1ccc2c(c1)CCCC1C3=NCCC3(C)CSC21 (stereo unspecified)
TGI (SN12C renal): > 100 µM
TGI (786-0 renal): > 100 µM
TGI (A549 NSCLC): > 100 µM
TGI (COLO 205 colon): > 100 µM
TGI (CCRF-CEM leukemia): > 100 µM

Cc1ccc2nc(N/N=C/c3cccc(C)n3)cc(C)c2c1
TGI (EKVX NSCLC): 35.7 µM
TGI (SN12C renal): 34.2 µM
TGI (OVCAR-5 ovarian): 28.5 µM
TGI (786-0 renal): 33.7 µM
TGI (MCF7 breast): 32.5 µM
TGI (A549 NSCLC): 43.4 µM
TGI (COLO 205 colon): 32.6 µM
TGI (MALME-3M melanoma): 30.3 µM
TGI (HOP-62 NSCLC): 36.8 µM

Cc1ccc(Oc2nc3ccccc3cc2-c2nnc(Cn3c(COc4ccccc4)nc4ccccc43)o2)cc1
GI50 (SN12C renal): 2.76 µM
TGI (SN12C renal): 11.9 µM
GI50 (786-0 renal): 3.09 µM
TGI (786-0 renal): 11.8 µM
GI50 (MCF7 breast): 0.949 µM
TGI (MCF7 breast): 5.38 µM
GI50 (A549 NSCLC): 8.5 µM
TGI (A549 NSCLC): 24.2 µM
GI50 (COLO 205 colon): 1.89 µM
TGI (COLO 205 colon): 4.44 µM
GI50 (MALME-3M melanoma): 3.65 µM
TGI (MALME-3M melanoma): 15.6 µM
GI50 (CCRF-CEM leukemia): 0.414 µM
TGI (CCRF-CEM leukemia): 3.74 µM
GI50 (HOP-62 NSCLC): 2.98 µM
TGI (HOP-62 NSCLC): 13 µM
